One assay has as its target recombinant HLA B*0702 (Homo sapiens, UniProt P01889). Description: biochemical. It counts as binding.
For assay [1], the system named is CD8^+ T-cells specific for the “majority”. Description: Cross-reactivity of CD8+ T-cells with UL49 AA 49-57 variants. It counts as cell-based, human.

No end group written: not given here.

For RPRGEVREFL, the IC50 on recombinant HLA B*0702 was < 2 nM. With RPRGKVRFL, the “cross-reactivity of majority-specific CD8^+ T-cells” value in assay [1] is “not cross-reactive”.
